Measured values published in paper PMC7162861, “Synthesis, cytotoxicity, pharmacokinetic profile, binding with DNA and BSA of new imidazo[1,2-a]pyrazine-benzo[d]imidazol-5-yl hybrids” (Scientific Reports, 2020).

How the values were obtained:
[1] = test system: CCRF-CEM; test: NCI cytotoxicity screen, Leukemia panel; assay type: cell-based; conditions: Homo sapiens, single dose 10 µM, negative = lethal, read-out: Percent growth inhibition
Description: (§1) Cytotoxicity was performed at National Cancer Institute (NCI), Bethesda, USA as per their protocols.

[2] = test system: HL-60(TB); test: NCI cytotoxicity screen, Leukemia panel; assay type: cell-based; conditions: Homo sapiens, HL-60, HL-60(TB); single dose 10 µM; negative = lethal; read-out: Percent growth inhibition
Description: as §1

[3] = test system: K-562; test: NCI cytotoxicity screen, Leukemia panel; assay type: cell-based; conditions: Homo sapiens, K562; K-562; single dose 10 µM; negative = lethal; read-out: Percent growth inhibition
Description: as §1

[4] = test system: MOLT-4; test: NCI cytotoxicity screen, Leukemia panel; assay type: cell-based; conditions: Homo sapiens, MOLT-4, MOLT-4; single dose 10 µM; negative = lethal; read-out: Percent growth inhibition
Description: as §1

[5] = test system: RPMI-8226; test: NCI cytotoxicity screen, Leukemia panel; assay type: cell-based; conditions: Homo sapiens; RPMI-8226; single dose 10 µM; negative = lethal; read-out: Percent growth inhibition
Description: as §1

[6] = test system: SR; test: NCI cytotoxicity screen, Leukemia panel; assay type: cell-based; conditions: Homo sapiens, single dose 10 µM, negative = lethal, read-out: Percent growth inhibition
Description: as §1

[7] = test system: A549/ATCC; test: NCI cytotoxicity screen, Non-Small Cell Lung Cancer panel; assay type: cell-based; conditions: Homo sapiens; A549/ATCC; single dose 10 µM; negative = lethal; read-out: Percent growth inhibition
Description: as §1

[8] = test system: EXVX; test: as above; assay type: cell-based; conditions: Homo sapiens; EXVX; single dose 10 µM; negative = lethal; read-out: Percent growth inhibition
Description: as §1

[9] = test system: HOP-62; test: as above; assay type: cell-based; conditions: Homo sapiens, single dose 10 µM, negative = lethal, read-out: Percent growth inhibition
Description: as §1

[10] = test system: HOP-92; test: as above; assay type: cell-based; conditions: Homo sapiens, single dose 10 µM, negative = lethal, read-out: Percent growth inhibition
Description: as §1

[11] = test system: NCI-H460; test: as above; assay type: cell-based; conditions: Homo sapiens, single dose 10 µM, negative = lethal, read-out: Percent growth inhibition
Description: as §1

[12] = test system: COLO 205; test: NCI cytotoxicity screen, Colon Cancer panel; assay type: cell-based; conditions: Homo sapiens, single dose 10 µM, negative = lethal, read-out: Percent growth inhibition
Description: as §1

[13] = test system: HCT-116; test: NCI cytotoxicity screen, Colon Cancer panel; assay type: cell-based; conditions: Homo sapiens, single dose 10 µM, negative = lethal, read-out: Percent growth inhibition
Description: as §1

[14] = test system: HCT-15; test: NCI cytotoxicity screen, Colon Cancer panel; assay type: cell-based; conditions: Homo sapiens, single dose 10 µM, negative = lethal, read-out: Percent growth inhibition
Description: as §1

[15] = test system: HT29; test: NCI cytotoxicity screen, Colon Cancer panel; assay type: cell-based; conditions: Homo sapiens, HT-29; HT29; single dose 10 µM; negative = lethal; read-out: Percent growth inhibition
Description: as §1

[16] = test system: HCC-2998; test: NCI cytotoxicity screen, Colon Cancer panel; assay type: cell-based, human; conditions: Homo sapiens; HCC-2998; single dose 10 µM; negative = lethal; read-out: Percent growth inhibition
Description: as §1

[17] = test system: KM12; test: NCI cytotoxicity screen, Colon Cancer panel; assay type: cell-based, human; conditions: Homo sapiens, single dose 10 µM, negative = lethal, read-out: Percent growth inhibition
Description: as §1

[18] = test system: SW-620; test: NCI cytotoxicity screen, Colon Cancer panel; assay type: cell-based, human; conditions: Homo sapiens, single dose 10 µM, negative = lethal, read-out: Percent growth inhibition
Description: as §1

[19] = test system: SF-268; test: NCI cytotoxicity screen, CNS Cancer panel; assay type: cell-based; conditions: Homo sapiens, single dose 10 µM, negative = lethal, read-out: Percent growth inhibition
Description: as §1

[20] = test system: SF-295; test: NCI cytotoxicity screen, CNS Cancer panel; assay type: cell-based; conditions: Homo sapiens, single dose 10 µM, negative = lethal, read-out: Percent growth inhibition
Description: as §1

[21] = test system: SF-539; test: NCI cytotoxicity screen, CNS Cancer panel; assay type: cell-based; conditions: Homo sapiens, single dose 10 µM, negative = lethal, read-out: Percent growth inhibition
Description: as §1

[22] = test system: SNB-19; test: NCI cytotoxicity screen, CNS Cancer panel; assay type: cell-based; conditions: Homo sapiens; SNB-19; single dose 10 µM; negative = lethal; read-out: Percent growth inhibition
Description: as §1

[23] = test system: SNB-75; test: NCI cytotoxicity screen, CNS Cancer panel; assay type: cell-based; conditions: Homo sapiens, single dose 10 µM, negative = lethal, read-out: Percent growth inhibition
Description: as §1

[24] = test system: U251; test: NCI cytotoxicity screen, CNS Cancer panel; assay type: cell-based; conditions: Homo sapiens, U-251; U251; single dose 10 µM; negative = lethal; read-out: Percent growth inhibition
Description: as §1

[25] = test system: LOX IMVI; test: NCI cytotoxicity screen, Melanoma panel; assay type: cell-based, human; conditions: Homo sapiens, single dose 10 µM, negative = lethal, read-out: Percent growth inhibition
Description: as §1

[26] = test system: M14; test: NCI cytotoxicity screen, Melanoma panel; assay type: cell-based, human; conditions: Homo sapiens, single dose 10 µM, negative = lethal, read-out: Percent growth inhibition
Description: as §1

[27] = test system: UACC-62; test: NCI cytotoxicity screen, Melanoma panel; assay type: cell-based, human; conditions: Homo sapiens, single dose 10 µM, negative = lethal, read-out: Percent growth inhibition
Description: as §1

[28] = test system: MALME-3M; test: NCI cytotoxicity screen, Melanoma panel; assay type: cell-based; conditions: Homo sapiens; MALME-3M; single dose 10 µM; negative = lethal; read-out: Percent growth inhibition
Description: as §1

[29] = test system: MDA-MB-435; test: NCI cytotoxicity screen, Melanoma panel; assay type: cell-based; conditions: Homo sapiens, MDA-MB-435, read-out: Percent growth inhibition
Description: as §1

[30] = test system: SK-MEL-28; test: NCI cytotoxicity screen, Melanoma panel; assay type: cell-based; conditions: Homo sapiens, single dose 10 µM, negative = lethal, read-out: Percent growth inhibition
Description: as §1

[31] = test system: SK-MEL-2; test: NCI cytotoxicity screen, Melanoma panel; assay type: cell-based; conditions: Homo sapiens, single dose 10 µM, negative = lethal, read-out: Percent growth inhibition
Description: as §1

[32] = test system: SK-MEL-5; test: NCI cytotoxicity screen, Melanoma panel; assay type: cell-based; conditions: Homo sapiens, single dose 10 µM, negative = lethal, read-out: Percent growth inhibition
Description: as §1

[33] = test system: UACC-257; test: NCI cytotoxicity screen, Melanoma panel; assay type: cell-based; conditions: Homo sapiens, single dose 10 µM, negative = lethal, read-out: Percent growth inhibition
Description: as §1

[34] = test system: 786-0; test: NCI cytotoxicity screen, Renal Cancer panel; assay type: cell-based, human; conditions: Homo sapiens, single dose 10 µM, negative = lethal, read-out: Percent growth inhibition
Description: as §1

[35] = test system: TK-10; test: NCI cytotoxicity screen, Renal Cancer panel; assay type: cell-based, human; conditions: Homo sapiens, single dose 10 µM, negative = lethal, read-out: Percent growth inhibition
Description: as §1

[36] = test system: ACHN; test: NCI cytotoxicity screen, Renal Cancer panel; assay type: cell-based; conditions: Homo sapiens, single dose 10 µM, negative = lethal, read-out: Percent growth inhibition
Description: as §1

[37] = test system: CAKI-1; test: NCI cytotoxicity screen, Renal Cancer panel; assay type: cell-based; conditions: Homo sapiens; CAKI-1; single dose 10 µM; negative = lethal; read-out: Percent growth inhibition
Description: as §1

[38] = test system: RXF 393; test: NCI cytotoxicity screen, Renal Cancer panel; assay type: cell-based; conditions: Homo sapiens, single dose 10 µM, negative = lethal, read-out: Percent growth inhibition
Description: as §1

[39] = test system: SN12C; test: NCI cytotoxicity screen, Renal Cancer panel; assay type: cell-based; conditions: Homo sapiens, single dose 10 µM, negative = lethal, read-out: Percent growth inhibition
Description: as §1

[40] = test system: UO-31; test: NCI cytotoxicity screen, Renal Cancer panel; assay type: cell-based; conditions: Homo sapiens, single dose 10 µM, negative = lethal, read-out: Percent growth inhibition
Description: as §1

[41] = test system: DU-145; test: NCI cytotoxicity screen, Prostate Cancer panel; assay type: cell-based, human; conditions: Homo sapiens, single dose 10 µM, negative = lethal, read-out: Percent growth inhibition
Description: as §1

[42] = test system: PC-3; test: NCI cytotoxicity screen, Prostate Cancer panel; assay type: cell-based, human; conditions: Homo sapiens, single dose 10 µM, negative = lethal, read-out: Percent growth inhibition
Description: as §1

[43] = Experimental log P, shake-flask method; assay type: physicochemical; conditions: n-octanol/phosphate buffer pH 7.4, read-out: Exp. Log P
Description: Partition coefficients or experimental log P values of all synthesized compounds (9–23, 30 and 31) were calculated using the shake-flask method. Log P values were determined using n-octanol and phosphate buffer (pH = 7.4) at 10:1 ratio of volumes. Stock solutions (10^−3 M) of compounds were prepared in DMSO. Glass vials were used to make final solutions i.e. stock solution (250 µL) and phosphate buffer (125 µL). To record the absorbance, wavelength was selected based on λmax of the respective compound. Initial absorbance (Ai) for every compound was noted consuming the stock solution in the buffer phase. Now added n-octanol to every vial and shaken well using a mechanical shaker for 50 minutes. To get separation of both phases, glass vials were centrifuged for 35 min. at 2500 rpm. Then, the layer of octanol was separated from glass vial. The final absorbance (Af) of each compound was recorded by using the buffer layer. The values of P for compounds were determined by the following equation (Eq. 8):8 P=Ai−Af/Af×Vw/Vo

SMILES: Fc1ccc(-c2cn3ccnc3c(-c3ccc4c(c3)ncn4C3CCCCC3)n2)cc1 [Compound 13, 8-(1-cyclohexyl-1H-benzo[d]imidazol-5-yl)-6-(4-fluorophenyl)imidazo[1,2-a]pyrazine]
- inhibition at 10 µM [1]: < 1%
- inhibition at 10 µM [2]: 5.28%
- inhibition at 10 µM [3]: 13.2%
- inhibition at 10 µM [4]: 11.4%
- inhibition at 10 µM [5]: 6.16%
- inhibition at 10 µM [6]: 20.8%
- inhibition at 10 µM [7]: 8.95%
- inhibition at 10 µM [8]: < 1%
- inhibition at 10 µM [9]: 13.2%
- inhibition at 10 µM [10]: 7.05%
- inhibition at 10 µM [11]: < 1%
- inhibition at 10 µM [12]: < 1%
- inhibition at 10 µM [13]: 6.58%
- inhibition at 10 µM [14]: 4.85%
- inhibition at 10 µM [15]: 8.33%
- inhibition at 10 µM [16]: < 1%
- inhibition at 10 µM [17]: 7.3%
- inhibition at 10 µM [18]: < 1%
- inhibition at 10 µM [19]: 5.13%
- inhibition at 10 µM [20]: < 1%
- inhibition at 10 µM [21]: < 1%
- inhibition at 10 µM [22]: < 1%
- inhibition at 10 µM [23]: < 1%
- inhibition at 10 µM [24]: 3.57%
- inhibition at 10 µM [25]: 0.76%
- inhibition at 10 µM [26]: 0.73%
- inhibition at 10 µM [27]: 2.44%
- inhibition at 10 µM [28]: < 1%
- inhibition at 10 µM [29]: < 1%
- inhibition at 10 µM [30]: < 1%
- inhibition at 10 µM [31]: 6.3%
- inhibition at 10 µM [32]: 2.9%
- inhibition at 10 µM [33]: < 1%
- inhibition at 10 µM [34]: 3.12%
- inhibition at 10 µM [35]: < 1%
- inhibition at 10 µM [36]: < 1%
- inhibition at 10 µM [37]: < 1%
- inhibition at 10 µM [38]: 36%
- inhibition at 10 µM [39]: < 1%
- inhibition at 10 µM [40]: 22.8%
- inhibition at 10 µM [41]: < 1%
- inhibition at 10 µM [42]: 10.2%
- logP [43]: 1.26

SMILES: c1csc(-c2cn3ccnc3c(-c3ccc4c(c3)ncn4C3CCCCC3)n2)c1 [Compound 22, 8-(1-cyclohexyl-1H-benzo[d]imidazol-5-yl)-6-(thiophen-2-yl)imidazo[1,2-a]pyrazine]
- inhibition at 10 µM [1]: < 1%
- inhibition at 10 µM [2]: 0.87%
- inhibition at 10 µM [3]: < 1%
- inhibition at 10 µM [4]: 12.4%
- inhibition at 10 µM [5]: < 1%
- inhibition at 10 µM [6]: 15%
- inhibition at 10 µM [7]: 1.63%
- inhibition at 10 µM [8]: 3.54%
- inhibition at 10 µM [9]: 0.44%
- inhibition at 10 µM [10]: < 1%
- inhibition at 10 µM [11]: < 1%
- inhibition at 10 µM [12]: < 1%
- inhibition at 10 µM [13]: < 1%
- inhibition at 10 µM [14]: 6.48%
- inhibition at 10 µM [15]: < 1%
- inhibition at 10 µM [16]: < 1%
- inhibition at 10 µM [17]: 6.84%
- inhibition at 10 µM [18]: < 1%
- inhibition at 10 µM [19]: 2.5%
- inhibition at 10 µM [20]: < 1%
- inhibition at 10 µM [21]: < 1%
- inhibition at 10 µM [22]: < 1%
- inhibition at 10 µM [23]: < 1%
- inhibition at 10 µM [24]: < 1%
- inhibition at 10 µM [25]: 1.01%
- inhibition at 10 µM [26]: < 1%
- inhibition at 10 µM [27]: 0.23%
- inhibition at 10 µM [28]: < 1%
- inhibition at 10 µM [29]: < 1%
- inhibition at 10 µM [30]: < 1%
- inhibition at 10 µM [31]: 13.1%
- inhibition at 10 µM [32]: 1.16%
- inhibition at 10 µM [33]: < 1%
- inhibition at 10 µM [34]: 0.59%
- inhibition at 10 µM [35]: < 1%
- inhibition at 10 µM [36]: < 1%
- inhibition at 10 µM [37]: < 1%
- inhibition at 10 µM [38]: < 1%
- inhibition at 10 µM [39]: < 1%
- inhibition at 10 µM [40]: 16.4%
- inhibition at 10 µM [41]: 3.63%
- inhibition at 10 µM [42]: 7.16%
- logP [43]: 1.37
